From PubChem BioAssay (NCI)
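In this assay, cells in 96-well plates receive the compound at five concentrations for 48 hours. Endpoints are linearly interpolated between the surrounding concentrations. GI50 marks 50% less growth. At the TGI there is no net growth.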

Tests used:
Assay in all cases: inhibition of tumour cell growth, NCI panel, 48 h; in the data active means GI50 below about 0.43 µM; inactive means the rest
PC-3 prostate = system: PC-3 prostate
SK-MEL-2 melanoma = system: SK-MEL-2 melanoma
NCI-H23 lung = system: NCI-H23 lung
SK-MEL-28 melanoma = system: SK-MEL-28 melanoma
OVCAR-8 ovarian = system: OVCAR-8 ovarian
SK-MEL-5 melanoma = system: SK-MEL-5 melanoma
IGROV1 ovarian = system: IGROV1 ovarian
SNB-75 CNS = system: SNB-75 CNS
SR leukemia = system: SR leukemia
UACC-62 melanoma = system: UACC-62 melanoma
MALME-3M melanoma = system: MALME-3M melanoma
HCT-116 colon = system: HCT-116 colon
UO-31 renal = system: UO-31 renal
SNB-19 CNS = system: SNB-19 CNS
DU-145 prostate = system: DU-145 prostate
K-562 leukemia = system: K-562 leukemia
HL-60(TB) leukemia = system: HL-60(TB) leukemia
A498 renal = system: A498 renal
U251 CNS = system: U251 CNS
OVCAR-5 ovarian = system: OVCAR-5 ovarian
HCC-2998 colon = system: HCC-2998 colon
HS 578T breast = system: HS 578T breast
MCF7 breast = system: MCF7 breast
COLO 205 colon = system: COLO 205 colon
MDA-MB-435 = system: MDA-MB-435
NCI-H226 lung = system: NCI-H226 lung
HOP-92 NSCLC = system: HOP-92 NSCLC
HOP-62 NSCLC = system: HOP-62 NSCLC
CAKI-1 renal = system: CAKI-1 renal
BT-549 breast = system: BT-549 breast
NCI/ADR-RES ovarian = system: NCI/ADR-RES ovarian
SK-OV-3 ovarian = system: SK-OV-3 ovarian
SF-268 CNS = system: SF-268 CNS
SW-620 colon = system: SW-620 colon
LOX IMVI melanoma = system: LOX IMVI melanoma
T-47D breast = system: T-47D breast
NCI-H522 lung = system: NCI-H522 lung
RPMI-8226 leukemia = system: RPMI-8226 leukemia
A549 NSCLC = system: A549 NSCLC
M14 melanoma = system: M14 melanoma
RXF 393 renal = system: RXF 393 renal
HT29 colon = system: HT29 colon
OVCAR-4 ovarian = system: OVCAR-4 ovarian
CCRF-CEM leukemia = system: CCRF-CEM leukemia
SF-295 CNS = system: SF-295 CNS
ACHN renal = system: ACHN renal

COc1ccc(Cl)cc1NC(=O)c1c(NC(=O)C(F)(F)C(F)(F)F)sc2c1CCCCC2
8.37 µM: TGI (NCI/ADR-RES ovarian)
7.23 µM: TGI (BT-549 breast)
11.3 µM: TGI (PC-3 prostate)
8.68 µM: TGI (MCF7 breast)
6.63 µM: TGI (HL-60(TB) leukemia)
2.8 µM: TGI (COLO 205 colon)
7.11 µM: TGI (ACHN renal)
7.68 µM: TGI (NCI-H522 lung)
inactive: GI50 (PC-3 prostate) 1.47 µM | GI50 (SK-MEL-2 melanoma) 1.07 µM | GI50 (NCI-H23 lung) 1.54 µM | GI50 (SK-MEL-28 melanoma) 1.9 µM | GI50 (OVCAR-8 ovarian) 2.02 µM | GI50 (IGROV1 ovarian) 2.81 µM | GI50 (SNB-75 CNS) 1.49 µM | GI50 (SR leukemia) 1.23 µM | GI50 (MALME-3M melanoma) 1.58 µM | GI50 (HCT-116 colon) 1.3 µM | GI50 (UO-31 renal) 1.94 µM | GI50 (SNB-19 CNS) 1.57 µM | GI50 (DU-145 prostate) 2.72 µM | GI50 (K-562 leukemia) 0.663 µM | GI50 (HL-60(TB) leukemia) 2.13 µM | GI50 (U251 CNS) 1.89 µM | GI50 (OVCAR-5 ovarian) 2.61 µM | GI50 (HCC-2998 colon) 1.88 µM | GI50 (HS 578T breast) 1.37 µM | GI50 (MCF7 breast) 1.68 µM | GI50 (COLO 205 colon) 1.3 µM | GI50 (MDA-MB-435) 2.52 µM | GI50 (NCI-H226 lung) 1.91 µM | GI50 (HOP-62 NSCLC) 2.49 µM | GI50 (CAKI-1 renal) 1.03 µM | GI50 (BT-549 breast) 2.06 µM | GI50 (NCI/ADR-RES ovarian) 1.8 µM | GI50 (SK-OV-3 ovarian) 2.18 µM | GI50 (SF-268 CNS) 1.09 µM | GI50 (SW-620 colon) 1.93 µM | GI50 (LOX IMVI melanoma) 2.62 µM | GI50 (T-47D breast) 1.26 µM | GI50 (NCI-H522 lung) 0.588 µM | GI50 (RPMI-8226 leukemia) 0.523 µM | GI50 (A549 NSCLC) 2.54 µM | GI50 (M14 melanoma) 2.66 µM | GI50 (RXF 393 renal) 1.73 µM | GI50 (HT29 colon) 2.48 µM | GI50 (OVCAR-4 ovarian) 1.57 µM | GI50 (CCRF-CEM leukemia) 0.769 µM | GI50 (SF-295 CNS) 1.03 µM | GI50 (ACHN renal) 1.76 µM
5.64 µM: TGI (SNB-75 CNS) | TGI (OVCAR-4 ovarian)
3.86 µM: TGI (UACC-62 melanoma)
5.63 µM: TGI (MALME-3M melanoma)
4.86 µM: TGI (CAKI-1 renal)
5.75 µM: TGI (UO-31 renal)
3.73 µM: TGI (SF-295 CNS)
3.21 µM: TGI (RPMI-8226 leukemia)
active: GI50 (SK-MEL-5 melanoma) 0.242 µM | GI50 (UACC-62 melanoma) 0.397 µM | GI50 (A498 renal) 0.312 µM | GI50 (HOP-92 NSCLC) 0.263 µM
6.89 µM: TGI (SK-OV-3 ovarian)
2.06 µM: TGI (A498 renal)
7.54 µM: TGI (HS 578T breast)
5.28 µM: TGI (RXF 393 renal)
> 100 µM: TGI (SK-MEL-28 melanoma) | TGI (OVCAR-8 ovarian) | TGI (IGROV1 ovarian) | TGI (SR leukemia) | TGI (SNB-19 CNS) | TGI (DU-145 prostate) | TGI (K-562 leukemia) | TGI (U251 CNS) | TGI (OVCAR-5 ovarian) | TGI (HCC-2998 colon) | TGI (MDA-MB-435) | TGI (SF-268 CNS) | TGI (SW-620 colon) | TGI (LOX IMVI melanoma) | TGI (A549 NSCLC) | TGI (M14 melanoma) | TGI (HT29 colon) | TGI (CCRF-CEM leukemia)
6.05 µM: TGI (NCI-H226 lung)
0.585 µM: TGI (SK-MEL-5 melanoma)
5.49 µM: TGI (T-47D breast)
7 µM: TGI (HOP-62 NSCLC)
7.38 µM: TGI (NCI-H23 lung)
5.71 µM: TGI (SK-MEL-2 melanoma)
5.67 µM: TGI (HCT-116 colon)
0.947 µM: TGI (HOP-92 NSCLC)
